In patent publication US5576429A, “5-substituted pyrimidine nucleosides and nucleotides” (Medivir AB, priority 1988, dated 1996):
Where two headings read alike, the source gives them in different places.

Columns and labels:
[1] = target: T1, Hepatit B virus DNA polymerase (Hepatitis B virus genotype D subtype ayw, UniProt P03156); assay: Test III Inhibition of HBV DNA polymerase by triphosphates; assay type: biochemical; conditions: virus preparation from human serum, endogenous nucleic acid as template; read-out: Concentration for 50% inhibition (IC50) of HBV DNAP
T1 construct: The HBV-DNAP was prepared from virus obtained from human serum; from tissue; host or cells: hepatitis B virus particles from human serum, solubilized with Nonidet P40
T1 sequence (P03156 whole entry): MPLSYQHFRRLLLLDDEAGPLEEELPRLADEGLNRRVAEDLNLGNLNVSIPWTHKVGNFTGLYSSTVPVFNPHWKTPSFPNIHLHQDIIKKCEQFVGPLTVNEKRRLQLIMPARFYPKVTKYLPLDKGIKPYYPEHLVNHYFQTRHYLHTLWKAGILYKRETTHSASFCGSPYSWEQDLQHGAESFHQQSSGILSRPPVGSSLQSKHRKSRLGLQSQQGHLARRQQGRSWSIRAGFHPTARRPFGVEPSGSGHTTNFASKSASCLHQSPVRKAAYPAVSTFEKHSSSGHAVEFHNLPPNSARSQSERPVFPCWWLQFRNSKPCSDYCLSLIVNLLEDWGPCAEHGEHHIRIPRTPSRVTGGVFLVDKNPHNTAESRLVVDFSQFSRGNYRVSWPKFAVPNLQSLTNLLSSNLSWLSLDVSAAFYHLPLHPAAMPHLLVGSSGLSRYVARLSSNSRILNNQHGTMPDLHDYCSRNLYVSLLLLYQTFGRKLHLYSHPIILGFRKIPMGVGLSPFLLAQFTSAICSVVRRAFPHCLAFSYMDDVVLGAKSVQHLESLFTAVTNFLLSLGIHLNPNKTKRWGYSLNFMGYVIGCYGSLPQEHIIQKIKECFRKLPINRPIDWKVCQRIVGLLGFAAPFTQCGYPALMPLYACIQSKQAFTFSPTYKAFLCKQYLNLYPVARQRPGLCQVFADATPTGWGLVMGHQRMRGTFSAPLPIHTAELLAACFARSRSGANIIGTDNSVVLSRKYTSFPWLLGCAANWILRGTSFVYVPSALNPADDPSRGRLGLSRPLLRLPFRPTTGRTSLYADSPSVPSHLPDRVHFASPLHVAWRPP
From the text: (§1) Test III Inhibition of reverse transcriptases and DNA polymerases by triphosphates of compounds of the invention
(§2) The 5'-triphosphates were synthesized essentially as described (Yoshikawa, M, Kato T, Takenishi T, Bull. Chem. Soc. (Japan), 42,3505-3508, 1969; Ludwig, J., Acta Biochim. Biophys. Acad. Sci. Hung. 16, 131-133, 1981; Ruth, J. L., Cheng, Y. C., Mol. Pharmacol. 20, 415 1981.) The HIV-RT was obtained as described by Hansen et al (Hansen J, Schulze T and Moelling K, J. Biol. Chem. 262, 12393-12396, 1987) from culture of Escherichia coli expressing the cloned HIV-pol gene. The HBV-DNAP was prepared from virus obtained from human serum, essentially as described by Nordenfelt et al (1987) [Nordenfelt E, Lofgren B, Chattopadhyaya J., Oberg B, J. Med. Virol. 22, 231-236, 1987]. The HSV-2 DNAP and cellular DNAPα preparation and reaction conditions have been described by Larsson et al [Larsson A, Sundqvist A, Parnerud A-M, 1986, Mol. Pharmacol. 29, 614-621]. […] The hepatitis B virus enzyme activity was determined with a virus preparation solubilized by non-idet P40, and endogenous nucleic acid as template, as described by Nordenfelt et al (vide supra)

[2] = target: Herpes simplex virus type 2 DNA polymerase (Human herpesvirus 2, UniProt P89453); assay: Test III Inhibition of HSV-2 DNA polymerase by triphosphates; assay type: biochemical; conditions: read-out: Concentration for 50% inhibition (IC50) of HSV-2 DNAP
Chain of Herpes simplex virus type 2 DNA polymerase (P89453 whole entry): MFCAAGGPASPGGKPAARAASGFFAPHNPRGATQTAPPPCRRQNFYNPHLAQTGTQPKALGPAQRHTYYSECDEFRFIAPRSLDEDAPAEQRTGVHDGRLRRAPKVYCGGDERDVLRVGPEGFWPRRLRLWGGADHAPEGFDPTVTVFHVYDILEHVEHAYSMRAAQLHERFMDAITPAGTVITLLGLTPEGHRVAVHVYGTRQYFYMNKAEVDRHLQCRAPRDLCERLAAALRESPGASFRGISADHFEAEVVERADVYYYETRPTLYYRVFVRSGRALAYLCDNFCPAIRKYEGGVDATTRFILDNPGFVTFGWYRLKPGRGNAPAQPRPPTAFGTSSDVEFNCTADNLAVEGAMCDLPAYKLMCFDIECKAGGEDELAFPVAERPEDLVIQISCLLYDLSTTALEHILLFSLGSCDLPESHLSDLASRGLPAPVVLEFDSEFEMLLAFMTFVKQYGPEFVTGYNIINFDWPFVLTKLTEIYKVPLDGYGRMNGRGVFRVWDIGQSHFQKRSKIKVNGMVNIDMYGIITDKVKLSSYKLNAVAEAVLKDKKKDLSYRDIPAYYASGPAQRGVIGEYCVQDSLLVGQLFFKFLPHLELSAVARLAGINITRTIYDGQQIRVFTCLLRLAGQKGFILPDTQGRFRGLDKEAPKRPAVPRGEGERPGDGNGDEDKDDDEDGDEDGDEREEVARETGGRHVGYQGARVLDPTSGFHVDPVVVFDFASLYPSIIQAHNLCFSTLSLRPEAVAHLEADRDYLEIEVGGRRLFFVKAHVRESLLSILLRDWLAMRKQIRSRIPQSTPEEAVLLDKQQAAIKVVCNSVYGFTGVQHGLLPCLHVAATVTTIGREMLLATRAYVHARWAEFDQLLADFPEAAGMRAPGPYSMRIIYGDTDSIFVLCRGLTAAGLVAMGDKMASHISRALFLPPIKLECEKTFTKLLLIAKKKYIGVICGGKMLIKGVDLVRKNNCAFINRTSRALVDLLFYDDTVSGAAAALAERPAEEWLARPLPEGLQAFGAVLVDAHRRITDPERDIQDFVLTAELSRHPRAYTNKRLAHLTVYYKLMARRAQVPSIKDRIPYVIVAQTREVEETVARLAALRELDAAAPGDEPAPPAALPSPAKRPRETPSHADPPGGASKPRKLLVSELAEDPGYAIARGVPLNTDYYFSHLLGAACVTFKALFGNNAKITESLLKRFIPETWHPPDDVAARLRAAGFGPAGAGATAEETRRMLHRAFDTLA
From the text: as §1, §2

[3] = target: T2, Human immuno deficiency virus reverse transcriptase (Human immunodeficiency virus type 1 group M subtype B, UniProt P04585); assay: Test III Inhibition of HIV reverse transcriptase by triphosphates; assay type: biochemical; conditions: template (rA)n(dT)12-18, substrate dTTP; read-out: Concentration for 50% inhibition (IC50) of HIV RT
T2 construct: Human immuno deficiency virus reverse transcriptase; made in house; host or cells: Escherichia coli
From the text: as §1, §2

[4] = target: T3, DNA polymerase alpha (Homo sapiens, UniProt P09884); assay: Test III Inhibition of cellular DNA polymerase alpha by triphosphates; assay type: biochemical; conditions: cellular DNAPα; read-out: Concentration for 50% inhibition (IC50) of DNAPα
T3 sequence (P09884 1-1462): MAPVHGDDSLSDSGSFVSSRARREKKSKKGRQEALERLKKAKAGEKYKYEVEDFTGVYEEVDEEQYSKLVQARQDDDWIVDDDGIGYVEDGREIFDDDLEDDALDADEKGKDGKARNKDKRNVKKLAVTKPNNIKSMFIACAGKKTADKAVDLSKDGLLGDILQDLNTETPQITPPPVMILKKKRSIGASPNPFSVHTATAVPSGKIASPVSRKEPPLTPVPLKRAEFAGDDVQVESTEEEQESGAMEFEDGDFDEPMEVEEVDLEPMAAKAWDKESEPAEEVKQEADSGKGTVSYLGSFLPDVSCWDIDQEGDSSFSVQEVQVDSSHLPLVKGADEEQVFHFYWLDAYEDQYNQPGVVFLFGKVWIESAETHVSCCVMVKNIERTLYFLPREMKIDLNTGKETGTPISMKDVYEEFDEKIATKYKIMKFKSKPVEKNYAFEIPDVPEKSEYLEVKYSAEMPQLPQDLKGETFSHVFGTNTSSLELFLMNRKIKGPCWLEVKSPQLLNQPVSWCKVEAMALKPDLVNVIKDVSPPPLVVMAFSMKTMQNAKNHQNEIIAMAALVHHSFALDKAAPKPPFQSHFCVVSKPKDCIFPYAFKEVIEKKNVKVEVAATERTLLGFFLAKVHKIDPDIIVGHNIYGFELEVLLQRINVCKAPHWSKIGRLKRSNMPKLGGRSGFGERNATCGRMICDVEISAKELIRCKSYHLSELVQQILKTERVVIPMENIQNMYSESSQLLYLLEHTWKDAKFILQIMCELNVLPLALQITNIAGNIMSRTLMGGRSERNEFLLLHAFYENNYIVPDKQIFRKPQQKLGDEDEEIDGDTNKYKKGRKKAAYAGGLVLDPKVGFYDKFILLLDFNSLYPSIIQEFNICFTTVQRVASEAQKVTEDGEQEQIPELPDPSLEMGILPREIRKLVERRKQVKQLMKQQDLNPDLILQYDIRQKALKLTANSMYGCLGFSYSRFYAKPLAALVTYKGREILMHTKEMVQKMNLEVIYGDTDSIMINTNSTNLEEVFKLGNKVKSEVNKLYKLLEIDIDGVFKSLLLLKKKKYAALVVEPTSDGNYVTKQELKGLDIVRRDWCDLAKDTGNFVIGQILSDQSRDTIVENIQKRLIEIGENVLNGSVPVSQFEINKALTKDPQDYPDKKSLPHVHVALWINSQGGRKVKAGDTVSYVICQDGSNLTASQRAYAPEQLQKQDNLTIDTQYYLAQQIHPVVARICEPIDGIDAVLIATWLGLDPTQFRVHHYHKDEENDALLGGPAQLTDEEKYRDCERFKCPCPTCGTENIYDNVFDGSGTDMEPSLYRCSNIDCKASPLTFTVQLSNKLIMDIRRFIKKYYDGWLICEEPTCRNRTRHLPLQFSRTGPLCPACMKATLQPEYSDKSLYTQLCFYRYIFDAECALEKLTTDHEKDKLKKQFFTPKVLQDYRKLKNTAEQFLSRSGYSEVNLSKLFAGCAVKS
From the text: as §1, §2

[5] = system: HIV (HTLV-IIIB); assay: Test I Effect of compounds on HIV in H9 cells (frequency of HIV antigen containing cells); assay type: cell-based
Experimental: Test I Effect of compounds of the formula I on HIV in H9 cells
Materials and methods: HIV infection of H9 cells
H9 cells, 10^5 cells per well on a 24 well plate, suspended in 2 ml RPMI-medium containing 10% fetal calf serum, 100 μg/ml pencillin, 10 μg/ml streptomycin sulfate and 2 μg/ml polybrene are exposed to HIV (HTLV-IIIB) and different concentrations of the test compounds. The plates are incubated at 37° C. in 5% CO2 for 6-7 days. The contents in each well is then homogenized with a pipette and transferred to a centrifuge tube. After centrifugation for 10 min at 1500 rpm the supernatant is removed and the cell pellet is analyzed by fixing in methanol on glass plates. Human HIV positive serum diluted 1:80 or 1:160 is added and incubated for 30 min at 37° C. The plate is then washed with phosphate-buffered saline (PBS) containing Ca^2+ and Mg^2 +. Sheep antihuman conjugate (FITC) is added and after a new incubation the plate is again washed with PBS. Contrast staining is done with Evans blue and after drying the frequency of HIV antigen containing cells is determined in a microscope.

[6] = Test II Cellular toxicity on H9 cells (cell number after 48 h); assay type: cell-based; conditions: human, read-out: % inhibition of cell multiplication, H9
[7] = Test II Cellular toxicity on F5000 cells (cell number after 48 h); assay type: cell-based, human; conditions: human, read-out: % inhibition of cell multiplication, F 5000
Experimental: (§3) Test II Cellular toxicity
(§4) F5000 cells, which are human embryo cells, 1×10^5 cells per plate, are incubated in Eagle's minimal essential medium, supplemented with Earle's salts, non-essential amino acids, 10% fetal calf serum, 10 mM hepes, 70 mg/l penicillin and 100 mg/l streptomycin, in absence or presence of test compounds. The number of cells per plate is determined after 48 h.

[8] = system: H9 cells; assay: Test II Cellular toxicity on H9 cells (cell number after 48 h); assay type: cell-based; conditions: 200 μM
[9] = system: F5000 cells; assay: Test II Cellular toxicity on F5000 cells (cell number after 48 h); assay type: cell-based, human; conditions: 100 μM
Experimental: as §3, §4

[10] = Human immunodeficiency virus 1, H9 cells, HIV (HTLV-IIIB), 6-7 days, read-out: Concentration for 50% inhibition (IC50) of human immuno deficiency virus multiplication in cell culture
[11] = Human immunodeficiency virus 1, IIIB, H9, read-out: Concentration for 50% inhibition (IC50) of human immuno deficiency virus multiplication in cell culture

For `O=c1[nH]c(=O)n([C@@H]2C[C@H](O)[C@@H](COP(=O)(O)OP(=O)(O)OP(=O)(O)O)O2)cc1-c1cccs1` [1-(2-Deoxy-alpha-D-ribofuranasyl)-5-(2-thienyl)uracil-5'-triphosphate], the IC50 [1] was 18000 nM, the IC50 [2] was 11000 nM and the IC50 [3] was 2000 nM. It also gave an IC50 [4] of 80000 nM.
Compound `O=c1[nH]c(=O)n([C@H]2C[C@H](O)[C@@H](COP(=O)(O)OP(=O)(O)OP(=O)(O)O)O2)cc1-c1cccs1` [1-(2-Deoxy-beta-D-ribofuranosyl)-5-(2-thienyl)uracil-5'-triphosphate] has an IC50 [1] of 110 nM, an IC50 [2] of 60 nM and an IC50 [3] of 15 nM. The IC50 [4] was 1600 nM.
With `O=c1[nH]c(=O)n([C@@H]2C[C@H](O)[C@@H](CO)O2)cc1-c1cccs1` [VSA 134, 1-(2-Deoxy-alpha-D-ribofuranosyl)-5-(2-thienyl)uracil] the IC50 [5, 10] was 50 to 10000 nM, the inhibition at 48 h, 250 µM ([6]; 250 μM) was 35% and the inhibition at 48 h, 100 µM ([7]; 100 μM) was 0 to 35%.
Compound `O=c1[nH]c(=O)n([C@@H]2C[C@H](O)[C@@H](CO)O2)cc1-c1ccc[se]1` [VSA 188] has an IC50 [5, 11] of 2000 to 20000 nM, an inhibition at 48 h, 200 µM [6] of 40% and an inhibition at 48 h, 200 µM [7] of 15%.
For `O=c1[nH]c(=O)n([C@H]2C[C@H](O)[C@@H](CO)O2)cc1-c1cccs1` [VSA 189], the “% inhibition of cell multiplication, H9” value [8] was 35% and the “% inhibition of cell multiplication, F 5000” value [9] was 10%.
`O=c1[nH]c(=O)n([C@H]2C[C@H](O)[C@@H](CO)O2)cc1-c1cc[se]c1` [VSA 992] showed an inhibition at 48 h, 200 µM [6] of 40% and an inhibition at 48 h, 200 µM [7] of 0%.
Work on `O=c1[nH]c(=O)n([C@@H]2C[C@H](O)[C@@H](CO)O2)cc1-c1cc[se]c1` [VSA 996] yielded an IC50 [5, 11] of 3000 to 100000 nM, an inhibition at 48 h, 200 µM [6] of 65% and an inhibition at 48 h, 200 µM [7] of 30%.
`O=c1[nH]c(=O)n([C@@H]2C[C@H](O)[C@@H](CO)O2)cc1-c1ccco1` [VSB 007, 1-(2-Deoxy-alpha-D-ribofuranosyl)-5-(2-furyl)uracil] gave an IC50 [5, 10] of less than 10000 nM.
Work on `O=c1[nH]c(=O)n([C@H]2C[C@H](O)[C@@H](CO)O2)cc1-c1ccco1` [VSB 008, 1-(2-Deoxy-beta-D-ribofuranosyl)-5-(2-furyl)uracil] yielded an inhibition at 48 h, 200 µM [7] of 0%.
